From ChEMBL document CHEMBL1833956, “Potent and novel 11β-HSD1 inhibitors identified from shape and docking based virtual screening” (Bioorg Med Chem Lett, 2011) come the findings set out here.

Cytochrome P450 2D6, sequence (P10635 whole entry): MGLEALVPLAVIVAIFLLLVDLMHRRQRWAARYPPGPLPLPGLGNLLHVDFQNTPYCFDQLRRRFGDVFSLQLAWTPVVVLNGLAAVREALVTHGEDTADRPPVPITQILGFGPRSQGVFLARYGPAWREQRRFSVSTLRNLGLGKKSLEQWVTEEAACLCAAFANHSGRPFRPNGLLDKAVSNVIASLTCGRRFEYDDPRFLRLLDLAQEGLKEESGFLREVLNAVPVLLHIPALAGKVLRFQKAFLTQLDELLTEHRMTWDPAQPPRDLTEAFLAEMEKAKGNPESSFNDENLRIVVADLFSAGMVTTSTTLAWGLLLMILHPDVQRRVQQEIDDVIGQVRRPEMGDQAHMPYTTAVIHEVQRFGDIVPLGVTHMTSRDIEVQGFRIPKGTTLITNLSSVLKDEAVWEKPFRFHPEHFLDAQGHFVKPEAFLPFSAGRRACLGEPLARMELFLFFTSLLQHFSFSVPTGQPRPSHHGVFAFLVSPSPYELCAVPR

One data set concerns the target T1, 11-beta-hydroxysteroid dehydrogenase 1 (Homo sapiens, UniProt P28845). Nature of the data set: Inhibition of human 11beta HSD1 expressed in HEK293 cells assessed as assessed as inhibition of [1,2-(n)3H]cortisone to [3H]-cortisol after 60 mins by scintillation proximity assay. The data set is classed as cell-based.
Settings: not given; call rule not given here
(In general: In a scintillation proximity assay essentially only radioactivity close to the scintillant gives light.)
Target sequence in this assay (P28845 whole entry): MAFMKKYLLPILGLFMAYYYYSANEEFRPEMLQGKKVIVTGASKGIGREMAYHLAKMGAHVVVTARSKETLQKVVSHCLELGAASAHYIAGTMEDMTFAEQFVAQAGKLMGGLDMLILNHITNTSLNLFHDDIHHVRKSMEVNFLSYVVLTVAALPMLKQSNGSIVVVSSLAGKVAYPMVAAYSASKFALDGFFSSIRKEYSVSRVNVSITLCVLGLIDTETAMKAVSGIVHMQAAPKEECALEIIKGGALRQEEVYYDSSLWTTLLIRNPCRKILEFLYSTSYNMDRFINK
For `CN(Cc1ccccc1)S(=O)(=O)c1ccc(Oc2cccc(Cl)c2C#N)cc1`, the 50% inhibitory concentration (IC50) is 41.3 nM.

Turning to `O=S(=O)(Nc1cccc(CCc2ccccn2)c1)c1cc(Cl)ccc1Cl`, the IC50 is 102 nM.

In the case of `CCN(CC)C(=O)Cc1csc(NS(=O)(=O)c2cccc(Cl)c2C)n1`, the IC50 came out at 28.4 nM.

On to `O=C(CSc1nnc(-c2ccccc2)c(-c2ccccc2)n1)N1CCc2ccccc21`, for which the IC50 is 58.1 nM.

Another data set concerns the target Cytochrome P450 2D6 (Homo sapiens, UniProt P10635). Description: Inhibition of CYP2D6 at 10 uM.
Settings: not given
The format is ADME.
Consider `Fc1cccc(Cl)c1CSc1nnc(-c2ccco2)n1-c1ccc(OCc2ccccc2)cc1`, for which the “inhibition (INH)” value is “Not Active”.

With `O=S(=O)(c1ccc2ccccc2c1)N1CC=C(c2ccccc2)CC1`, the “inhibition (INH)” value is “Not Active”.

Turning to `O=S(=O)(c1ccc2ccccc2c1)N1CCCN(Cc2c(F)cccc2Cl)CC1`, the “inhibition (INH)” value is “Not Active”.

With `CN(Cc1ccccc1)S(=O)(=O)c1ccc(Oc2cccc(Cl)c2C#N)cc1`, the “inhibition (INH)” value is “Not Active”.

Consider `O=S(=O)(Nc1cccc(CCc2ccccn2)c1)c1cc(Cl)ccc1Cl`, for which the “inhibition (INH)” value is recorded as “Active”.

As to `O=S(=O)(c1ccc2ccccc2c1)N1CCN(c2ncc(C(F)(F)F)cc2Cl)CC1`, the “inhibition (INH)” value is “Not Active”.

For the compound `N#C/C(=C\c1ccc2c(c1)CCO2)S(=O)(=O)c1ccc(Cl)cc1Cl`, the “inhibition (INH)” value is recorded as “Not Active”.

With `O=C(CSc1nnc(-c2ccccc2)c(-c2ccccc2)n1)N1CCc2ccccc21`, the “inhibition (INH)” value is reported as “Active”.

Tested on in the next data set: not listed separately
Nature of the data set: Protein binding in plasma. The format is ADME, cell-free. The settings on record: read-out: PPB.
Turning to `Fc1cccc(Cl)c1CSc1nnc(-c2ccco2)n1-c1ccc(OCc2ccccc2)cc1`, the fraction unbound was no more than 0.05.

Consider `O=S(=O)(c1ccc2ccccc2c1)N1CC=C(c2ccccc2)CC1`, for which the fraction unbound is no more than 0.05.

Consider `O=S(=O)(c1ccc2ccccc2c1)N1CCCN(Cc2c(F)cccc2Cl)CC1`, for which the fraction unbound was no more than 0.1.

Turning to `CN(Cc1ccccc1)S(=O)(=O)c1ccc(Oc2cccc(Cl)c2C#N)cc1`, the fraction unbound is no more than 0.05.

With `O=S(=O)(Nc1cccc(CCc2ccccn2)c1)c1cc(Cl)ccc1Cl`, the fraction unbound was no more than 0.1.

Take `O=S(=O)(c1ccc2ccccc2c1)N1CCN(c2ncc(C(F)(F)F)cc2Cl)CC1`: the fraction unbound is no more than 0.1.

As for `N#C/C(=C\c1ccc2c(c1)CCO2)S(=O)(=O)c1ccc(Cl)cc1Cl`, the fraction unbound was no more than 0.05.

Regarding `O=C(CSc1nnc(-c2ccccc2)c(-c2ccccc2)n1)N1CCc2ccccc21`, the fraction unbound is no more than 0.05.

The target in the next data set is CYP3A4 (Homo sapiens, UniProt P08684). Description: Inhibition of CYP3A4 in human liver microsomes using NADPH at 10 uM by LC-MS/MS analysis relative to control.
CYP3A4, sequence (P08684 whole entry): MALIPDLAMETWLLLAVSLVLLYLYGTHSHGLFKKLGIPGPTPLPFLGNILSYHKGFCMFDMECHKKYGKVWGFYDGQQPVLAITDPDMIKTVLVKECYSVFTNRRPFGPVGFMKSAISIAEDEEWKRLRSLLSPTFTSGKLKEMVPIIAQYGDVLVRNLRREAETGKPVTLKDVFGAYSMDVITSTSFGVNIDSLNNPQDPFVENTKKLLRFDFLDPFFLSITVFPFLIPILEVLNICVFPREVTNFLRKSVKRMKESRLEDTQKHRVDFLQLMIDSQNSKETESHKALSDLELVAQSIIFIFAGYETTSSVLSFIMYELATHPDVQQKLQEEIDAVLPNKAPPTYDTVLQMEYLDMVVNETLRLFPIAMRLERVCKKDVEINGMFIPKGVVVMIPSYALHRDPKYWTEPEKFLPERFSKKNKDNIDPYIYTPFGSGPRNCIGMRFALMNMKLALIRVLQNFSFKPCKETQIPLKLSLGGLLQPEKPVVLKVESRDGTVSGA
Settings: not given
The format is ADME, Microsome. On the technique in general: Microsomes from liver hold many membrane-bound enzymes, among them those of drug oxidation.
Consider `Fc1cccc(Cl)c1CSc1nnc(-c2ccco2)n1-c1ccc(OCc2ccccc2)cc1`, for which 10 µM produced 73% inhibition.

As to `O=S(=O)(c1ccc2ccccc2c1)N1CC=C(c2ccccc2)CC1`, the inhibition at 10 µM came to 14%.

With `O=S(=O)(c1ccc2ccccc2c1)N1CCCN(Cc2c(F)cccc2Cl)CC1`, the inhibition at 10 µM turned out to be 26%.

In the case of `CN(Cc1ccccc1)S(=O)(=O)c1ccc(Oc2cccc(Cl)c2C#N)cc1`, the inhibition at 10 µM is 17%.

Take `O=S(=O)(Nc1cccc(CCc2ccccn2)c1)c1cc(Cl)ccc1Cl`: the inhibition at 10 µM was determined as 82%.

Regarding `O=S(=O)(c1ccc2ccccc2c1)N1CCN(c2ncc(C(F)(F)F)cc2Cl)CC1`, testing at 10 µM gave an inhibition of 13%.

In turn, `N#C/C(=C\c1ccc2c(c1)CCO2)S(=O)(=O)c1ccc(Cl)cc1Cl` had an inhibition at 10 µM of 26%.

The compound `O=C(CSc1nnc(-c2ccccc2)c(-c2ccccc2)n1)N1CCc2ccccc21` registered an inhibition at 10 µM of 36%.

A further data set addresses T2, 11-beta-hydroxysteroid dehydrogenase type 2 (Homo sapiens, UniProt P80365).
T2 sequence (P80365 whole entry): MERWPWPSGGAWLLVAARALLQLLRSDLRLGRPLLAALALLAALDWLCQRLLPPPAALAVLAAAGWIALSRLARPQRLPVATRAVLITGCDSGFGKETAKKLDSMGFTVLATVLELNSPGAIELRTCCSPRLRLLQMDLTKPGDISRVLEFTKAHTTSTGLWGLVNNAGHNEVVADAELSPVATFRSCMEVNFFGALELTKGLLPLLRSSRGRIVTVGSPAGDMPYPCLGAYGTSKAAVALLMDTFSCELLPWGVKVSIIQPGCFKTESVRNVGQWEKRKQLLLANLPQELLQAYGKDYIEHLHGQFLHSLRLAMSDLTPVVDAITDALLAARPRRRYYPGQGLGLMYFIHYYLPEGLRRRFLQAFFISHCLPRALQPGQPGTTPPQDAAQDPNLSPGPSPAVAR
Description: Inhibition of human 11beta HSD2.
Settings: not given
In turn, `O=C(CSc1nnc(-c2ccccc2)c(-c2ccccc2)n1)N1CCc2ccccc21` came in with a concentration for half-maximal inhibition (IC50) of 8900 nM.

For the next data set, the species on record is Homo sapiens. Description: Selectivity ratio of IC50 for human 11beta HSD2 to IC50 for human 11beta HSD1.
Settings: not given
In the case of `CN(Cc1ccccc1)S(=O)(=O)c1ccc(Oc2cccc(Cl)c2C#N)cc1`, the Ratio IC50 amounted to 2420.

With `O=C(CSc1nnc(-c2ccccc2)c(-c2ccccc2)n1)N1CCc2ccccc21`, the Ratio IC50 came out at 200.

The next data set addresses T1, 11-beta-hydroxysteroid dehydrogenase 1. Description: Inhibition of human 11beta HSD1 expressed in HEK293 cells assessed as assessed as inhibition of [1,2-(n)3H]cortisone to [3H]-cortisol at 100 uM after 60 mins by scintillation proximity assay.
Settings: not given
Target sequence in this assay (P28845 whole entry, looked up): as the sequence (P28845 whole entry) above
As to `CN(Cc1ccccc1)S(=O)(=O)c1ccc(Oc2cccc(Cl)c2C#N)cc1`, the inhibition is less than 50%.

Broadly, the IC50 is the concentration that inhibits the measured activity by half. Usually inhibition stands for the change of the read-out against control, counted positive when it falls.
